Test results reported in ChEMBL document CHEMBL5137060, “Glioblastoma: Current Status, Emerging Targets, and Recent Advances” (J Med Chem, 2022).

Assays:
[1] = Water solubility of the compound; format: physicochemical
[2] = Cytotoxicity against patient derived xenografted D456 cells; format: functional, cell-based; conditions: Homo sapiens
Astrocyte = assay: Cytotoxicity against NHA cells; format: functional, cell-based; conditions: Homo sapiens
[3] = Plasma stability in mouse relative to control; format: ADME, cell-free
[4] = Plasma stability in monkey relative to control; format: ADME, cell-free, Macaca mulatta; conditions: rhesus monkey
[5] = Plasma stability in human relative to control; format: ADME, cell-free
U-87 MG = assay: Cytotoxicity against human U87 cells; format: functional, U-87MG ATCC
T98G [6] = assay: Cytotoxicity against human T98G cells; format: functional
U-251 [7] = assay: Cytotoxicity against human U251N cells incubated for 24 to 72 hrs by fluorescence microscopic analysis; format: functional, cell-based
U-251 [8] = assay: Inhibition of cell migration of human U251N cells relative to control; format: functional
U-251 [9] = assay: Cytotoxicity against human U-251 cells; format: functional, cell-based
[10] = Cytotoxicity against U87MG Human EGFR vIII cells; format: functional, cell-based
[11] = Antiproliferative activity against human U-87 MG cells incubated for 72 hrs by MTT assay; format: functional, cell-based, U-87MG ATCC
[12] = Antiproliferative activity against human U-87 MG cells assessed as inhibitionof cell growth incubated for 24 to 72 hrs by MTT assay; format: functional, cell-based, U-87MG ATCC
DBTRG-05MG = assay: Cytotoxicity against human DBTRG cells; format: functional, cell-based
[13] = Cytotoxicity against human U-87 MG cells; format: functional, cell-based, U-87MG ATCC
Translocator protein = Translocator protein (Homo sapiens, UniProt P30536); assay: Binding affinity to TSPO (unknown origin)
Sequence of Translocator protein (P30536 whole entry): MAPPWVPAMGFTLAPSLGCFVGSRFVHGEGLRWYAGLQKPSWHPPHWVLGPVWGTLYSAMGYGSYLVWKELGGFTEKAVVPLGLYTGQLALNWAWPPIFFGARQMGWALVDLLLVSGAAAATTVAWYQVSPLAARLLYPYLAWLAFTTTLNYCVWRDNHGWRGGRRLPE

[14] = Growth inhibition of human U373 cells; format: functional; conditions: U373 MG
Hs 683 = assay: Growth inhibition of human Hs 683 cells; format: functional
U-251 [15] = assay: Cytotoxicity against human U-251 cells assessed cell growth inhibition incubated for 48 hrs by CCK8 assay; format: functional, cell-based; conditions: U-251, 48 h
[16] = Cytotoxicity against human 091214 cells assessed cell growth inhibition incubated for 48 hrs by CCK8 assay; format: functional, cell-based; conditions: Homo sapiens, 091214, 48 h
C6 = assay: Anticancer activity against rat C6 cells; format: functional, cell-based
[17] = Cytotoxicity against human glial cells; format: toxicity, cell-based, Glial cell
LN-229 = assay: Cytotoxicity against human LN-229 cells assessed as cell viability measured after 48 hrs by countess-II FL Hemocytometer method; format: functional, cell-based; conditions: LN-229, 48 h
SNB-19 = assay: Cytotoxicity against human SNB-19 cells assessed as cell viability measured after 48 hrs by countess-II FL Hemocytometer method; format: functional, cell-based; conditions: SNB-19, 48 h
U-251 [18] = assay: Cytotoxicity against human U-251MG cells assessed as cell viability; format: functional, cell-based
T98G [19] = assay: Cytotoxicity against human T98G cells assessed as cell viability; format: functional, cell-based
[20] = Cytotoxicity against human U-87G cells assessed as cell viability; format: functional, cell-based; conditions: U87G
[21] = Inhibition of cell migration of patient derived glioblastoma T78 spheroid cell culture treated at 10 uM for 24 hrs by propidium iodide staining method relative to control; format: functional; conditions: Homo sapiens
[22] = Inhibition of cell migration of patient derived glioblastoma T86 spheroid cell culture treated at 10 uM for 24 hrs by propidium iodide staining method relative to control; format: functional; conditions: Homo sapiens
[23] = Cytotoxicity against patient derived glioblastoma T111 cells; format: functional; conditions: Homo sapiens, read-out: LC50 (the source's name)
[24] = Cytotoxicity against patient derived glioblastoma T78 cells; format: functional; conditions: Homo sapiens, read-out: LC50 (the source's name)
[25] = Cytotoxicity against patient derived glioblastoma T86 cells; format: functional; conditions: Homo sapiens, read-out: LC50 (the source's name)
[26] = Antiproliferative activity against human U-343MG cells assessed as inhibition of cell growth incubated for 72 hrs by MTS assay; format: functional, cell-based
[27] = Antiproliferative activity against human ANGM-CSS cells assessed as inhibition of cell growth incubated for 72 hrs by MTS assay; format: functional, cell-based

Structure (SMILES): CCOC(=O)[C@H](CCC(=O)C=[N+]=N)NC(=O)OC(C)OC(=O)C(C)(C)C (stereo partly drawn)
- solubility [1]: > 25 mg/mL

Structure (SMILES): O=C1Nc2ccccc2C12CCN[C@@H]2c1ccccc1 (stereo partly drawn)
- IC50 [2]: 41.1 µM
- IC50 (Astrocyte): 101 µM

Structure (SMILES): CCOC(=O)[C@H](CCC(=O)C=[N+]=[N-])NC(=O)[C@@H](N)Cc1c[nH]c2ccccc12
- Stability [3]: 0%
- Stability [4]: 4%
- Stability [5]: 12%

Structure (SMILES): Cc1ccc(C(C(=O)NO)c2c(-c3ccc4ccccc4c3)[nH]c3ccccc23)cc1C (stereo not drawn)
- GI50 (U-87 MG): 6.7 µM
- GI50 (T98G [6]): 7.5 µM

Structure (SMILES): O=C1Nc2ccccc2C1Cc1ccc2cc[nH]c2c1 (stereo not drawn)
- IC50 [2]: 21.3 µM
- IC50 (Astrocyte): 24.7 µM

Structure (SMILES): COc1cc(NC(C)CCCNC(=O)CCCC(=O)NO)c2ncccc2c1 (stereo not drawn)
- IC50 (U-251 [7]): 10 µM
- inhibition (INH) (U-251 [8]): 42%

Structure (SMILES): CC(C)(C)OC(=O)N1CC[C@@]2(C(=O)Nc3ccccc32)[C@@H]1c1cccc(Nc2ccc(CO)c(S(C)(=O)=O)c2)c1
- IC50 (U-251 [9]): 2.23 µM
- IC50 [10]: 1.78 µM

Structure (SMILES): O=C(NO)c1ccc(Cn2c(=O)n(CCc3ccccc3)c(=O)c3ccccc32)cc1
- IC50 [11]: 1.56 µM

Structure (SMILES): C[C@@H]1C2CCCC3CC[C@]4(C)OO[C@]32[C@H](O[C@@H]1OCCCN=C=S)O4 (stereo partly drawn)
- IC50 [12]: 7.41 µM

Structure (SMILES): O=C(NO)C(c1ccccc1)c1c(-c2ccc3ccccc3c2)[nH]c2ccccc12 (stereo not drawn)
- GI50 (U-87 MG): 21.3 µM
- GI50 (T98G [6]): 1.9 µM

Structure (SMILES): O=C1c2cc(-c3cccnc3)ncc2C(=O)c2c1c(-c1ccccn1)nn2-c1ccc(F)cc1F
- IC50 (U-251 [9]): 2.5 µM
- IC50 (DBTRG-05MG): 2.5 µM
- IC50 [13]: 2.5 µM

Structure (SMILES): Cc1ccc(CN(C)C(=O)c2nc(-c3ccccc3Cl)c3ccccc3n2)cc1
- Ki (Translocator protein): 0.00399 µM

Structure (SMILES): CC(C)OC(=O)[C@H](CCC(=O)C=[N+]=[N-])NC(=O)[C@@H](N)Cc1c[nH]c2ccccc12
- Stability [3]: 0%
- Stability [4]: 10%
- Stability [5]: 61%

Structure (SMILES): O=C(c1ccccc1)c1[nH]c2[nH]cnc(=O)c2c1-c1ccccc1
- GI50 [14]: ≤ 0.01 µM
- GI50 (Hs 683): 0.01 µM

Structure (SMILES): C[C@@H]1O[C@@H](O[C@H]2CC[C@H](O[C@H]3[C@H](O)C[C@H](c4ccc5c(c4O)C(=O)c4ccc(C[C@](C)(CC(=O)O)O[C@H]6CC[C@H](O[C@H]7CCC(=O)[C@H](C)O7)[C@H](C)O6)c(O)c4C5=O)O[C@@H]3C)O[C@H]2C)CCC1=O [GRINCAMYCIN B]
- IC50 (U-251 [15]): 2.04 µM
- IC50 [16]: 3.11 µM

Structure (SMILES): CCOC(=O)/C=C/c1ccc(/C=C/c2ccc(O)c(O)c2)cc1
- IC50 (C6): 3.9 µM
- IC50 [17]: 86 µM

Structure (SMILES): CC(C)(C)[Si](O[C@H]1[C@H](O)C[C@](O)(CO)C[C@H]1O[Si](c1ccccc1)(c1ccccc1)C(C)(C)C)(c1ccccc1)c1ccccc1
- IC50 (LN-229): 10.7 µM
- IC50 (SNB-19): 28.2 µM

Structure (SMILES): C[C@H]1O[C@@H](O[C@H]2CC[C@]3(C=O)[C@H]4CC[C@]5(C)[C@@H](C6CCC(=O)OC6)CC[C@]5(O)[C@@H]4CC[C@]3(O)C2)[C@H](O)[C@@H](O)[C@@H]1O (stereo partly drawn)
- IC50 (U-251 [18]): 70 µM
- IC50 (T98G [19]): 50 µM
- IC50 [20]: 40 µM

Structure (SMILES): CCn1c(-c2nonc2N)nc2cncc(CNC3CCNCC3)c21
- inhibition at 10 µM [21]: 37.8%
- inhibition at 10 µM [22]: 60.4%
- CC50 [23]: 112 µM
- CC50 [24]: 115 µM
- CC50 [25]: 456 µM

Structure (SMILES): O=C1CC(c2ccc(-c3cc[nH]n3)s2)c2cc(N3CCNC3=O)ccc2N1 (stereo not drawn)
- IC50 [2]: 1.59 µM
- IC50 (Astrocyte): 4.11 µM

Structure (SMILES): O=C1Nc2ccc(NC(=O)[C@H](NC(=O)c3cccn(Cc4ccc(F)c(F)c4)c3=O)c3ccccc3)cc2/C1=C/c1cnc[nH]1
- IC50 [26]: 0.0497 µM
- IC50 [27]: 0.044 µM

Structure (SMILES): O=C(Nc1ccc(Cl)c(C(F)(F)F)c1)c1ccc(Cl)cc1
- IC50 [2]: 2.96 µM
- IC50 (Astrocyte): 14.2 µM

Structure (SMILES): COC(=O)/C=C/c1ccc(/C=C/c2ccc(O)c(O)c2)cc1
- IC50 (C6): 5.4 µM
- IC50 [17]: 142 µM

Structure (SMILES): O=C(COc1ccc2c(=O)c(-c3ccccc3)coc2c1)N=c1[nH]c2ccccc2[nH]1
- IC50 [2]: 6.58 µM
- IC50 (Astrocyte): 4.77 µM

Structure (SMILES): NC(=O)CC(c1ccc(NC(=O)c2cccnc2)cc1)c1cccc2[nH]ccc12 (stereo not drawn)
- IC50 [2]: 8.65 µM
- IC50 (Astrocyte): 27.3 µM
